Test results as given in publication PMC4535335 (Bioorganic & medicinal chemistry letters, 2014).

Columns and labels:
[1] = cited from earlier work
[2] = cited from earlier work; remark: listed apart in the source
[3] = plasma protein binding; cited from earlier work
[4] = intrinsic clearance in human hepatic microsomes fortified with NADPH; format: in vitro ADME
[5] = intrinsic clearance in rat hepatic microsomes fortified with NADPH; format: in vitro ADME; conditions: OCD3 for OCH3

| SMILES | rat brain fu [1] | brain:plasma Kp [2] | human fu [3] | reduction of human in vitro intrinsic clearance relative to VU6000181 ([4]; OCD3 for OCH3) | CLint scaled ([4]; human, microsomes) [mL/min/kg] | improvement to rat intrinsic clearance relative to VU6000181 [5] |
| --- | --- | --- | --- | --- | --- | --- |
| O=C(c1ccc(F)c(F)c1)N1CCN2C(=O)c3ccccc3[C@@]12c1ccc(Cl)cc1 [ML375] | 0.003 | 1.8 | 0.013 | – | – | – |
| [2H]C([2H])([2H])Oc1ccc([C@@]23c4ccccc4C(=O)N2CCN3C(=O)c2cc(F)c(F)c(F)c2)cc1C [VU6001005] | – | – | – | ~ 5 fold | 72.9 | negligible improvement |
